Measured values taken from patent US11421001B2, “Template-fixed peptidomimetics” (UNIVERSITAET ZUERICH, priority 2007, dated 2022).

How the values were obtained:
[1] = tested on: human red blood cells (hRBC); assay: Hemolysis; format: cell-based; conditions: 100 μM peptide, 20% v/v hRBC, 1 hour at 37° C.; percent hemolysis per method
Experimental: The peptides were tested for their hemolytic activity against human red blood cells (hRBC). Fresh hRBC were washed three times with phosphate buffered saline (PBS) by centrifugation for 10 min at 2000×g. Peptides at a concentration of 100 μM were incubated with 20% v/v hRBC for 1 hour at 37° C. The final erythrocyte concentration was approximately 0.9×10^9 cells per ml. A value of 0% resp. 100% cell lysis was determined by incubation of the hRBC in the presence of PBS alone and respectively 0.1% Triton X-100 in H2O. The samples were centrifuged and the supernatant was 20-fold diluted in PBS buffer and the optical density (OD) of the sample at […] was measured. The 100% lyses value (OD540H2O) gave an OD540 of approximately 1.3-1.8. Percent hemolysis was calculated as follows: (OD540peptide/OD540H2O)×100%.

[2] = tested on: hematopoietic progenitors (CFU-GM); assay: Stem cell mobilisation, mice model (CFU-GM); format: in vivo, mouse
Text: The aim of the study was to evaluate the ability of the compound of Example 1 and Example 2 to mobilize hematopoietic progenitors from mouse bone marrow to peripheral blood using in-vitro hematopoietic colony assays. In humans, accurate information about progenitor cell mobilization is provided by the colony forming unit granulocyte-monocyte (CFU-GM) assay or by determining the abundance of CD34(+) cells by FACS analysis (see ref. 10 below). In mice, CD34 is not a useful marker for stem cells; instead the CFU-GM is more commonly used (see ref. 11 below).
In order to assess the ability of the compounds of Example 1 and Example 2 to mobilize murine stem cells (CFU-GM) C3H/HeJ female mice (Jackson Laboratory) were injected s.c. with 5 mg/k, of the compounds of Example 1 and of Example 2 and as reference AMD3100 (Broxmeyer, et al, J Exp Med 201, 1307-1318), (currently undergoing Phase III clinical trials) for stem cell mobilisation. Peripheral blood samples from 5 animals per test group were collected at each time point and nucleated cell counts performed as standard assays.

[3] = Cytotoxicity assay (MTT reduction); format: cell-based; conditions: human, HELA cells (Acc57), peptides at 12.5, 25 and 50 μM, trend line, read-out: Cyto-toxicity LC50/GI50 Hela cells
Experimental: The cytotoxicity of the peptides to HELA cells (Acc57) and COS-7 cells (CRL-1651) was determined using the MTT reduction assay [see ref. 6 and 7, below]. Briefly the method was as follows: HELA cells and COS-7 cells were seeded at 7.0×10^3 and, respectively, 4.5×10^3 cells per well and grown in 96-well microtiter plates for 24 hours at 37° C. at 5% CO2. At this point, time zero (Tz) was determined by MTT reduction (see below). The supernatant of the remaining wells was discarded, and fresh medium and the peptides in serial dilutions of 12.5, 25 and 50 μM were pipetted into the wells. Each peptide concentration was assayed in triplicate. Incubation of the cells was continued for 48 hours at 37° C. at 5% CO2. Wells were then washed once with PBS and subsequently 100 μl MTT reagent (0.5 mg/mL in medium RPMI1640 and, respectively, DMEM) was added to the wells. This was incubated at 37° C. for 2 hours and subsequently the medium was aspirated and 100 μl isopropanol was added to each well. The absorbance at 595 nm of the solubilized product was measured (OD595peptide). For each concentration averages were calculated from triplicates. The percentage of growth was calculated as follows: (OD595peptide−OD595Tz−OD595Empty well)/(OD595Tz−OD595Empty well)×100% and was plotted for each peptide concentration. […]

[4] = target: T1, human CXCR4 (Homo sapiens, UniProt P61073); assay: Ca2+ assay: CXCR4-antagonizing activity; format: cell-based
T1 construct: expressed in transfected cells; host or cells: mouse pre-B cell line 300-19
Experimental: 2.2. Ca^2+− Assay: CXCR4-Antagonizing Activity of the Peptides.
Increases in intracellular calcium were monitored using a Flexstation 384 (Molecular Devices, Sunnyvale, Calif.) to assay the peptides for CXCR4 antagonism in a mouse pre-B cell line 300-19 stably transfected with human CXCR4 [see references 1, 2 and 3, below]. The cells were batch loaded with the Calcium 3 Assay kit (Molecular Devices) in assay buffer (Hanks Balanced salt solution, HBSS, 20 mM HEPES, pH 7.4, 0.1% BSA) for 1 h at room temperature and then 200,000 labeled cells were dispensed into black 96 well assays plates (Costar No. 3603). A 20-fold concentrated solution of peptide in assay buffer was added to the cells and the whole plate was centrifuged to settle the cells to the bottom of the wells. Calcium mobilization induced by 10 nM stromal-derived factor-1 (SDF-1) was measured in the Flexstation 384 (excitation, 485 […]) for 90 seconds. A maximal change in fluorescence response above baseline was used to calculate antagonist activity. The data for dose response curves (antagonist concentration versus % maximum response) were fitted to a four parameter logistic equation using SoftmaxPro 4.6 (Molecular Devices), from which IC50% values were calculated.

[5] = 14-day intravenous injection toxicity and toxicokinetic study in mice; format: in vivo, mouse
Experimental: 3.2 Repeated Toxicity Studies in Mice
The toxicity and toxicokinetics of the compound of Example 1 was investigated following daily i.v. injection in the mouse for at least 14 days. Groups of 12 male and 12 female Crl:CD1(ICR) mice received dose preparations containing control article (50 mM sodium dihydrogen orthophosphate buffer containing 0.9% w/v sodium chloride) or 8, 24, or 40 mg/kg/day POL6326 at a dose volume of 5 mL/kg. Satellite groups of 24 animals per sex per group were included at each dose level. Assessment of toxicity was based on mortality, clinical signs, body weights, food consumption, ophthalmic examinations, clinical and anatomic pathology, and toxicokinetic evaluations.

[6] = Plasma stability, rat plasma; format: in vitro ADME; conditions: read-out: Stability rat Plasma t1/2
[7] = Maximum tolerated dose in mice; format: in vivo, mouse; conditions: mouse, i.v.
Experimental: 3.1. Maximum Tolerated Dose in Mice
a) The compound of Example 1, dispersed in Water for Injection or 0.9% physiological saline), was administered, in the preliminary study, by i.v. injection at dose levels of 35, 50, 70, 85, 100, 150, 250 or 500 mg/kg to groups consisting of one male and one female mouse (Crl:CD1(ICR)). In addition, two groups comprising two male and two female mice received dose levels of 90 and 100 mg/kg, respectively, and the 50 mg/kg dose level was repeated in a group comprising one male and one female.
b) Maximum tolerated dose studies (MTD) carried out with the compound of Example 2 using CD1 mice (3 mice/group) and was performed using i.v, ip and sc. administration.

[8] = Plasma stability, human plasma; format: in vitro ADME; conditions: read-out: Stability human Plasma t1/2
[9] = tested on: CD34(+) hematopoietic cells; assay: Stem cell mobilisation, monkey model (CD34(+) cells by FACS); format: in vivo, cynomolgus monkeys (Macaca fascicularis); conditions: cynomolgus monkeys, slow bolus i.v. injection
Experimental: An assessment of mobilization of peripheral-blood hematopoietic stem cells in cynomolgus monkeys (Macaca fascicularis) was performed. The compound of Example 1 was administered to 4 monkeys (2 male and 2 female) as a slow bolus i.v. injection over 2 minutes and CD34(+) cells were determined by FACS analysis. Toxicokinetic blood sampling was also performed.

[10] = mouse, 8, 24 or 40 mg/kg/day i.v.

T1 sequence (P61073 whole entry): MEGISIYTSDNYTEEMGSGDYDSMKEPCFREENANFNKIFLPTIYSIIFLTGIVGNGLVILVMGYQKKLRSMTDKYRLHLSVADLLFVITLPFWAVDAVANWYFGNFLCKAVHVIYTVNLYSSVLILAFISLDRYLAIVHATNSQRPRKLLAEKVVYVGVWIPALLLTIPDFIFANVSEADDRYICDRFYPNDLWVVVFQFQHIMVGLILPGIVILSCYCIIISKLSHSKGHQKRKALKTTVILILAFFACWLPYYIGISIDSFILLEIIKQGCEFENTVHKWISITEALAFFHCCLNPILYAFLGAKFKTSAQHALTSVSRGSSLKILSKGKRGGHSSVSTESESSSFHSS

| SMILES | Hemo-lysis at 100 μM [1] | return of CFU-GM to baseline levels, time post administration ([2]; C3H/HeJ mice, 5 mg/kg s.c.) | time of maximal effect on CFU-GM blood cell numbers ([2]; C3H/HeJ mice, 5 mg/kg s.c.) | dose of peak level increase in release of CFU-GM (dose response) ([2]; mice, follow up dose response study) | CC50 at 48 h [3] | IC50 [4] | NOAEL at 14 days ([5]; both sexes, Crl:CD1(ICR), in vivo, iv, mouse, daily i.v. dosing, 14 days, read-out: NOAEL level) | white blood cell and absolute lymphocyte counts ([5]; females given 40 mg/kg/day) | clinical chemistry results [5, 10] | effect on body weight, body weight change, food consumption, ophthalmic observations [5, 10] | test article-related gross lesions [5, 10] | test article-related microscopic lesions [5, 10] | half-life at 10 µM [6] | acute minimum lethal intravenous dose level [7] | half-life at 10 µM [8] | duration of mobilisation [9] | mobilization of CD34(+) hematopoietic cells [9] | time of peak level of mobilization [9] | effect on CFU-GM blood cell numbers / progenitors over time ([2]; C3H/HeJ mice, 5 mg/kg s.c., compared to control mice) |
| --- | --- | --- | --- | --- | --- | --- | --- | --- | --- | --- | --- | --- | --- | --- | --- | --- | --- | --- | --- |
| C[C@@H]1NC(=O)[C@H](Cc2c[nH]cn2)NC(=O)[C@H](Cc2ccc(O)cc2)NC(=O)[C@@H]2CCCN2C(=O)[C@H]2CCCN2C(=O)[C@H](CCCCN)NC(=O)[C@H](CCC(N)=O)NC(=O)[C@H](Cc2ccc(O)cc2)NC(=O)[C@@H]2CSSC[C@H](NC1=O)C(=O)N[C@@H](CO)C(=O)N[C@@H](C)C(=O)N1CCC[C@@H]1C(=O)N[C@@H](CCN)C(=O)N[C@@H](CCCNC(=N)N)C(=O)N[C@@H](Cc1ccc(O)cc1)C(=O)N2 [Example 1] | 0.6 | 6 h | 120 min | 5 mg/kg | > 50000 nM | 5.5 nM | 40 mg/kg/day | mildly higher | unaffected | no notable effect | No test article-related gross lesions were recorded | No test article-related microscopic lesions were observed | > 4 h | exceed 90 mg/kg | > 4 h | transient | induced mobilization of CD34(+) hematopoietic cells | peak level at two hours | – |
| c1cc(CN2CCCNCCNCCCNCC2)ccc1CN1CCCNCCNCCCNCC1 [AMD3100, reference compound] | – | – | – | – | – | – | – | – | – | – | – | – | – | – | – | – | – | – | increase in the frequency and number of progenitors at 30 and 60 minutes |
